Laboratory results: patent US20220106296A1, “CYANOTRIAZOLE COMPOUNDS AND USES THEREOF” (Novartis AG, priority 2018, published 2022)

Assays:
[1] = tested on: intracellular T. cruzi amastigotes; assay: T. cruzi amastigote growth inhibition assay (NIH 3T3 host cells, β-galactosidase readout); type: cell-based; conditions: Trypanosoma cruzi, NIH3T3, read-out: (c) T.c.* IC50
Procedure: NIH 3T3 fibroblast cells (ATCC) were maintained in RPMI-1640 medium (Life Technologies) supplemented with 10% heat-inactivated fetal bovine serum and 100 IU penicillin/100 μg/ml streptomycin at 37° C./5% CO2. T. cruzi Tulahuen parasites constitutively expressing E. coli β-galactosidase were maintained in tissue culture as an infection in NIH 3T3 fibroblast cells. Briefly, 2×10^7 T. cruzi trypomastigotes were used to infect 6×10^5 NIH 3T3 cells growing in T75 CELLSTAR tissue culture flasks and cultured at 37° C./5% CO2 until proliferating intracellular parasites lysed host 3T3 cells and were released into the culture medium (typically 6-7 days). During the infection, the tissue culture medium was changed every two days. Number of T. cruzi trypomastigotes present in 1 ml of medium was determined using a haemocytometer.
To determine compound potency on intracellular T. cruzi amastigotes, NIH 3T3 cells were re-suspended in phenol red-free RPMI-1640 medium containing 3% heat-inactivated fetal bovine serum and 100 IU penicillin/100 μg/ml streptomycin, seeded at 1,000 cells/well (40 μl) in white, clear bottom 384-well plates (Greiner Bio-One), and incubated overnight at 37° C./5% CO2. The following day, 100 nl of each compound in DMSO were transferred to individual plate wells by Echo 555 acoustic liquid handling system. After one hour incubation, 1×10^6 of tissue culture-derived T. cruzi trypomastigotes, in 10 μl of phenol red-free RPMI-1640 medium supplemented with 3% heat-inactivated fetal bovine serum and 100 IU penicillin/100 μg/ml streptomycin were added to each well. Plates were then incubated for 6 days at 37° C./5% CO2. Intracellular T. cruzi parasites were quantified by measuring the activity of parasite-expressed β-galactosidase. Ten microliters of a chromogenic β-galactosidase substrate solution (0.6 mM chlorophenol red-β-D-galactopyranoside/0.6% NP-40 in PBS; both reagents from Calbiochem) were added to each well and incubated for 2 h at room temperature. After incubation, absorption was measured at 570 nm on SpectraMax M2 plate reader (Molecular Devices). Measured absorbance values in wells with compounds were divided by the average absorbance value of the plate DMSO controls, and used for calculation of compound EC50 values as described above.

[2] = tested on: T. b. brucei Lister427 bloodstream form parasites; assay: T. b. brucei growth inhibition assay (CellTiter-Glo, 48 hours); type: cell-based; conditions: Trypanosoma brucei
Method in brief: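 1×10^4 bloodstream-form parasites/well in HMI-9 medium exposed to 10-point, 3-fold compound dilutions for 48 h at 37 °C, 5% CO2. Parasite number quantified as intracellular ATP by CellTiter-Glo luminescence, normalized to DMSO controls for IC50 calculation.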

[3] = tested on: stage I mouse model, hemolymphatic (blood stream) form of human infection; assay: Stage I mouse model of HAT; type: in vivo
From the text: (§1) Based on the favorable in vitro and in vivo pharmacological properties, selected cyanotraizole compounds were chosen for testing in stage I and stage II mice models. The stage I mouse model represents the hemolymphatic (blood stream) form of human infection.

[4] = tested on: stage II mouse model, CNS form of the disease; assay: Stage II mouse model of HAT; type: in vivo
From the text: as §1

T.b. gambinese STIB930 = assay: T.b. gambiense growth inhibition assay; type: cell-based; conditions: Trypanosoma brucei, read-out: (b) T.b.g* IC50
Procedure: Bloodstream form of T. b. brucei Lister427 strain was obtained from the Genomics Institute of the Novartis Research Foundation. This strain was used for carrying out growth inhibition and kill kinetics assays. T. b. gambiense STIB930 and T. b. rhodesiense STIB900 were obtained from Swiss TPH, were used for carrying out the growth inhibition assays. Bloodstream form of T. b. gambiense and T. b. rhodesiense were also grown in HMI-9 media, described above, but the media was supplemented by 5% human serum and 5% heat-inactivated FBS instead of 10% FBS. To determine compound growth inhibitory potency on T. b. brucei Lister427 bloodstream form parasites, 200 nL of 10-point, 3 fold serially diluted compounds in DMSO were transferred to the wells of white, solid bottom 384-well plates (Greiner Bio-One) by either Echo 555 acoustic liquid handling system or Mosquito. Then, 1×10^4 of T. b. brucei parasites in 40 μL of HMI-9 medium were added to each well, and the plates were incubated for 48 hours at 37° C. in 5% CO2 incubators. Parasite numbers in individual plate wells were determined through quantification of intracellular ATP amount. The CellTiter-Glo luminescent cell viability reagent (Promega) was added to plate wells, and ATP-dependent luminescence signal was measured on Tecan M1000 plate Reader after 30 min incubation. Luminescence values in wells with compounds were divided by the average luminescence value of the plate DMSO controls, and used for calculation of compound IC50 values. Similar assay was also used for determining IC50 against T.b. gambinese STIB930 and T. b. rhodesiense STIB900 strains, but the initial concentration of cells used was 3×10^4 parasites/ml.

[5] = tested on: Leishmania donovani axenic amastigote; assay: Growth inhibition of Leishmania donovani axenic amastigote; type: cell-based; conditions: L. donovani growth inhibition, read-out: (d) L.d* IC50
Procedure: Leishmania donovani axenic amastigote parasites are grown at 37° C., 5% CO2 in media made of RPMI 1640, 4 mM L-glutamine, 20% heat inactivated FBS, 100 units/ml of penicillin and 100 μg/ml of streptomycin, 23 μM Folic Acid, 100 μM Adenosine, 22 mM D-glucose, 25 mM MES. The pH of media is adjusted to 5.5 at 37° C. using HCl. 20 μL of media is first dispensed into 384 well plates and 100 nL of the compounds of invention in DMSO are added to the plate wells. At the same time control compounds and DMSO are added to plates to serve as the positive and negative controls, respectively. 40 μL of parasite culture (9600 parasites) are then added to the plate wells. The plates are then placed into incubators. After 2 day incubation, 20 μL of Cell TiterGlo (Promega) is added to the plate wells. The luminescence signal of each well is measured using the Envision reader (Perkin Elmer). The percentage inhibition of 50%, EC50, is calculated for each of the compounds.

Row | Compound | IC50 [1] | IC50 [2] | cure in stage I mouse model ([3]; 10 mg/kg QD) | cure in stage II mouse model ([4]; 10 mg/kg QD) | IC50 (T.b. gambinese STIB930) | IC50 [5] | cure in stage I mouse model ([3]; 10 mg/kg BID) | cure in stage II mouse model ([4]; 100 mg/kg QD)
1 | N#Cc1ncn(CC(=O)N2Cc3ccc(-c4cc(F)cnc4C(F)(F)F)cc3C2)n1 [Example 8, 1-(2-(5-(5-fluoro-2-(trifluoromethyl)pyridin-3-yl)isoindolin-2-yl)-2-oxoethyl)-1H-1,2,4-triazole-3-carbonitrile] | 100 to 1000 nM | 100 to 1000 nM | complete cure without relapse | complete cure without relapse |  |  |  | 
2 | N#Cc1ncn(CC(=O)N2Cc3ccc(-c4ccncc4C(F)(F)F)cc3C2)n1 [Example 27, 1-(2-oxo-2-(5-(3-(trifluoromethyl)pyridin-4-yl)isoindolin-2-yl)ethyl)-1H-1,2,4-triazole-3-carbonitrile] | < 100 nM | < 100 nM |  |  | < 100 nM |  |  | 
3 | N#Cc1ncn(CC(=O)N2Cc3ccc(-c4ccc(F)cc4C(F)(F)F)cc3C2)n1 [Example 29, 1-(2-(5-(4-fluoro-2-(trifluoromethyl)phenyl)isoindolin-2-yl)-2-oxoethyl)-1H-1,2,4-triazole-3-carbonitrile] | < 100 nM | < 100 nM |  |  | 100 to 1000 nM | ≥ 1000 nM | complete cure without relapse | complete cure without relapse
4 | N#Cc1ncn(CC(=O)N2Cc3ccc(-c4cc(F)c(F)cc4Cl)cc3C2)n1 [Example 30, 1-(2-(5-(2-chloro-4,5-difluorophenyl)isoindolin-2-yl)-2-oxoethyl)-1H-1,2,4-triazole-3-carbonitrile] | < 100 nM | < 100 nM |  |  | 100 to 1000 nM | ≥ 1000 nM |  | 
5 | COc1ccc(-c2ccc3c(c2)CN(C(=O)Cn2cnc(C#N)n2)C3)c(C(F)(F)F)c1 [Example 31, 1-(2-(5-(4-methoxy-2-(trifluoromethyl)phenyl)isoindolin-2-yl)-2-oxoethyl)-1H-1,2,4-triazole-3-carbonitrile] | < 100 nM | < 100 nM |  |  | 100 to 1000 nM | ≥ 1000 nM |  | 
6 | N#Cc1ncn(CC(=O)N2Cc3ccc(-c4ccc(F)cc4C#N)cc3C2)n1 [Example 32, 1-(2-(5-(2-cyano-4-fluorophenyl)isoindolin-2-yl)-2-oxoethyl)-1H-1,2,4-triazole-3-carbonitrile] | < 100 nM | 100 to 1000 nM |  |  |  | ≥ 1000 nM |  | 
7 | N#Cc1ncn(CC(=O)N2Cc3ccc(-c4ccccc4Cl)cc3C2)n1 [Example 33, 1-(2-(5-(2-chlorophenyl)isoindolin-2-yl)-2-oxoethyl)-1H-1,2,4-triazole-3-carbonitrile] | < 100 nM | 100 to 1000 nM |  |  | 100 to 1000 nM | ≥ 1000 nM |  | 
8 | COc1ccc(-c2ccc3c(c2)CN(C(=O)Cn2cnc(C#N)n2)C3)c(Cl)c1 [Example 34, 1-(2-(5-(2-chloro-4-methoxyphenyl)isoindolin-2-yl)-2-oxoethyl)-1H-1,2,4-triazole-3-carbonitrile] | < 100 nM | 100 to 1000 nM |  |  | 100 to 1000 nM | ≥ 1000 nM |  | 
9 | N#Cc1ncn(CC(=O)N2Cc3ccc(-c4c(Cl)cccc4Cl)cc3C2)n1 [Example 35, 1-(2-(5-(2,6-dichlorophenyl)isoindolin-2-yl)-2-oxoethyl)-1H-1,2,4-triazole-3-carbonitrile] | < 100 nM | 100 to 1000 nM |  |  |  | ≥ 1000 nM |  | 
10 | N#Cc1ncn(CC(=O)N2Cc3ccc(-c4ccccc4C(F)(F)F)cc3C2)n1 [Example 36, 1-(2-oxo-2-(5-(2-(trifluoromethyl)phenyl)isoindolin-2-yl)ethyl)-1H-1,2,4-triazole-3-carbonitrile] | < 100 nM | 100 to 1000 nM |  |  |  | ≥ 1000 nM |  | 
11 | N#Cc1ncn(CC(=O)N2Cc3ccc(-c4ccc(F)cc4Cl)cc3C2)n1 [Example 37, 1-(2-(5-(2-chloro-4-fluorophenyl)isoindolin-2-yl)-2-oxoethyl)-1H-1,2,4-triazole-3-carbonitrile] | < 100 nM | 100 to 1000 nM |  |  | 100 to 1000 nM |  |  | 
12 | N#Cc1ncn(CC(=O)N2Cc3ccc(-c4ccc(Cl)cc4Cl)cc3C2)n1 [Example 38, 1-(2-(5-(2,4-dichlorophenyl)isoindolin-2-yl)-2-oxoethyl)-1H-1,2,4-triazole-3-carbonitrile] | < 100 nM | 100 to 1000 nM |  |  | 100 to 1000 nM | ≥ 1000 nM |  | 
13 | N#Cc1ccc(F)c(-c2ccc3c(c2)CN(C(=O)Cn2cnc(C#N)n2)C3)c1 [Example 41, 1-(2-(5-(5-cyano-2-fluorophenyl)isoindolin-2-yl)-2-oxoethyl)-1H-1,2,4-triazole-3-carbonitrile] | < 100 nM | 100 to 1000 nM |  |  | 100 to 1000 nM | ≥ 1000 nM |  | 
14 | N#Cc1ncn(CC(=O)N2Cc3ccc(-c4ccccc4C#N)cc3C2)n1 [Example 43, 1-(2-(5-(2-cyanophenyl)isoindolin-2-yl)-2-oxoethyl)-1H-1,2,4-triazole-3-carbonitrile] | < 100 nM | 100 to 1000 nM |  |  |  | ≥ 1000 nM |  | 
15 | N#Cc1ncn(CC(=O)N2Cc3ccc(-c4cc(F)c(F)cc4F)cc3C2)n1 [Example 45, 1-(2-oxo-2-(5-(2,4,5-trifluorophenyl)isoindolin-2-yl)ethyl)-1H-1,2,4-triazole-3-carbonitrile] | 100 to 1000 nM | 100 to 1000 nM |  |  | 100 to 1000 nM |  |  | 
16 | N#Cc1ccc(-c2ccc3c(c2)CN(C(=O)Cn2cnc(C#N)n2)C3)cc1 [Example 46, 1-(2-(5-(4-cyanophenyl)isoindolin-2-yl)-2-oxoethyl)-1H-1,2,4-triazole-3-carbonitrile] | 100 to 1000 nM | 100 to 1000 nM |  |  |  | ≥ 1000 nM |  | 
17 | N#Cc1ncn(CC(=O)N2Cc3ccc(-c4cccc(F)c4C(F)(F)F)cc3C2)n1 [Example 84, 1-(2-(5-(3-fluoro-2-(trifluoromethyl)phenyl)isoindolin-2-yl)-2-oxoethyl)-1H-1,2,4-triazole-3-carbonitrile] | < 100 nM | 100 to 1000 nM |  |  |  |  |  | 
18 | N#Cc1ncn(CC(=O)N2Cc3ccc(-c4cnccc4C(F)(F)F)cc3C2)n1 [Example 86, 1-(2-oxo-2-(5-(4-(trifluoromethyl)pyridin-3-yl)isoindolin-2-yl)ethyl)-1H-1,2,4-triazole-3-carbonitrile] | 100 to 1000 nM | 100 to 1000 nM |  |  |  |  |  | 
